Patent US8853196B2, “Aminochromane, aminothiochromane and amino-1,2,3,4-tetrahydroquinoline derivatives, pharmaceutical compositions containing them, and their use in therapy” (AbbVie Deutschland GmbH & Co. KG, priority 2011, dated 2014)
pKi: −log10 of the molar value. Structures can show the parent of a compound that is named as a salt.

Target: T1, human GlyT1c transporter (Homo sapiens, UniProt P48067)
T1 construct: expressed in transfected cells; host or cells: CHO cells (recombinant; membranes)
T1 sequence (P48067 1-706): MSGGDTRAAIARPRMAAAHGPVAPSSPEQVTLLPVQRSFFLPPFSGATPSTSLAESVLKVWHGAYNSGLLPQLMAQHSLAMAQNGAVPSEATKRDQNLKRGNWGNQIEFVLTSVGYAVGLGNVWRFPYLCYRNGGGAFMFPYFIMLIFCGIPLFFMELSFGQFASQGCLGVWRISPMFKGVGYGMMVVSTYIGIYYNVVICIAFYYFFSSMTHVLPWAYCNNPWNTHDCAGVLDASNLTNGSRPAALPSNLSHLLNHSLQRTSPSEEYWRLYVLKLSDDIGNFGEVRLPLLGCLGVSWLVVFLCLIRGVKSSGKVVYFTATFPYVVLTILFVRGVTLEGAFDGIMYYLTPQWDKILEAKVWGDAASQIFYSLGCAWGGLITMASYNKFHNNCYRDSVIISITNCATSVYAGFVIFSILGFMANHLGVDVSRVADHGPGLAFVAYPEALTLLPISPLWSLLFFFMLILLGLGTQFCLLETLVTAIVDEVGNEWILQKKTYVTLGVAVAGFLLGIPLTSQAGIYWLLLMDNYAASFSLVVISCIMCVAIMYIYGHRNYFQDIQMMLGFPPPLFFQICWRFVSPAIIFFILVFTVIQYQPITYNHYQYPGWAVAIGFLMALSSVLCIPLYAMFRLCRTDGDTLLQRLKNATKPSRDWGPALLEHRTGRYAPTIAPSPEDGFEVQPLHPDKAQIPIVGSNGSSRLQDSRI
Experiment: Radioligand binding assay using recombinant CHO cell membranes expressing human GlyT1
Conditions: values given as upper bounds, read-out: radioligand binding Kiapp
Experimental: 2. Radioligand Binding Assays Using Recombinant CHO Cell Membranes Expressing Human GlyT1:
Radioligand binding to human GlyT1c transporter-expressing membranes was determined as described in Mezler et al., Molecular Pharmacology 74:1705-1715, 2008.

SMILES | pKi
Cn1cc(S(=O)(=O)NCCOc2ccc3c(c2)[C@H](Cc2ccccc2)[C@H](N2CCC2)CO3)cn1 (relative stereo) [Example 16, cis-1-Methyl-1H-pyrazole-4-sulfonic acid [2-(3-azetidin-1-yl-4-benzyl-chroman-6-yloxy)-ethyl]-amide] | ≥ 8.00
Cn1cnc(S(=O)(=O)NCc2ccc3c(c2)[C@@H](Cc2ccccc2)[C@@H](NCC2CCCCC2)CO3)c1 (relative stereo) [Example 22, cis-1-Methyl-1H-imidazole-4-sulfonic acid [4-benzyl-3-(cyclohexylmethyl-amino)-chroman-6-lmethyl]-amide; trifluoro-acetic acid salt] | ≥ 8.00
CCS(=O)(=O)NCc1cc2c(cc1F)OC[C@@H](NC)[C@@H]2Cc1ccccc1 (relative stereo) [Example 28, trans-Ethanesulfonic acid (-4-benzyl-7-fluoro-3-methylamino-chroman-6-ylmethyl)-amide] | ≥ 7.00
CN[C@@H]1COc2cc(F)c(CNS(=O)(=O)c3cn(C)cn3)cc2[C@H]1Cc1ccccc1 (relative stereo) [Example 32, trans-1-Methyl-1H-imidazole-4-sulfonic acid (-4-benzyl-7-fluoro-3-methylamino-chroman-6-ylmethyl)-amide] | ≥ 8.00
Cn1cnc(S(=O)(=O)NCc2ccc3c(c2)[C@H](Cc2ccccc2)[C@H](NCCC2CC2)CO3)c1 (relative stereo) [Example 33, cis-N-((-4-benzyl-3-((2-cyclopropylethyl)amino)chroman-6-yl)methyl)-1-methyl-1H-imidazole-4-sulfonamide 2,2,2-trifluoroacetate] | ≥ 8.00
Cn1cnc(S(=O)(=O)NCc2ccc3c(c2)[C@H](Cc2ccccc2)[C@H](NCCC2CCCC2)CO3)c1 (relative stereo) [Example 34, cis-N-((-4-benzyl-3-((2-cyclopentylethyl)amino)chroman-6-yl)methyl)-1-methyl-1H-imidazole-4-sulfonamide 2,2,2-trifluoroacetate] | ≥ 5.00
CC(C)CN[C@@H]1COc2ccc(CNS(=O)(=O)c3cn(C)cn3)cc2[C@@H]1Cc1ccccc1 (relative stereo) [Example 37, cis-N-((-4-benzyl-3-(isobutylamino)chroman-6-yl)methyl)-1-methyl-1H-imidazole-4-sulfonamide 2,2,2-trifluoroacetate] | ≥ 8.00
Cn1cnc(S(=O)(=O)NCc2ccc3c(c2)[C@H](Cc2ccccc2)[C@H](NCC2CCC2)CO3)c1 (relative stereo) [Example 41, cis-N-((-4-benzyl-3-((cyclobutylmethyl)amino)chroman-6-yl)methyl)-1-methyl-1H-imidazole-4-sulfonamide 2,2,2-trifluoroacetate] | ≥ 8.00
CN[C@@H]1COc2ccc(CNS(C)(=O)=O)cc2[C@H]1Cc1ccccc1 (relative stereo) [Example 61, trans-N-(-4-Benzyl-3-methylamino-chroman-6-ylmethyl)-methanesulfonamide] | ≥ 6.00
O=S(=O)(CC1CC1)NCc1ccc2c(c1)[C@H](Cc1ccccc1)[C@H](N1CCCC1)CO2 (relative stereo) [Example 65, cis-N-(-4-Benzyl-3-pyrrolidin-1-yl-chroman-6-ylmethyl)-C-cyclopropyl-methanesulfonamide] | ≥ 8.00
N[C@@H]1COc2ccc(CNS(=O)(=O)CC3CC3)cc2[C@@H]1Cc1ccccc1 (relative stereo) [Example 67, cis-N-(-3-Amino-4-benzyl-chroman-6-ylmethyl)-C-cyclopropyl-methanesulfonamide] | ≥ 8.00
N[C@@H]1COc2ccc(CNS(=O)(=O)CC3CC3)cc2[C@H]1Cc1ccccc1 (relative stereo) [Example 68, trans-N-(-3-Amino-4-benzyl-chroman-6-ylmethyl)-C-cyclopropyl-methanesulfonamide] | ≥ 7.00

Next, values leading:

pKi | SMILES
≥ 8.00 | Cn1cc(S(=O)(=O)NCc2ccc3c(c2)[C@H](Cc2ccccc2)[C@H](N2CCC2)CO3)cn1 (relative stereo) [Example 15, cis-1-Methyl-1H-pyrazole-4-sulfonic acid (3-azetidin-1-yl-4-benzyl-chroman-6-ylmethyl)-amide]
≥ 7.00 | CCS(=O)(=O)NCCOc1ccc2c(c1)[C@H](Cc1ccccc1)[C@H](N1CCC1)CO2 (relative stereo) [Example 18, cis-Ethanesulfonic acid [2-(3-azetidin-1-yl-4-benzyl-chroman-6-yloxy)-ethyl]-amide]
≥ 7.00 | CCS(=O)(=O)NCc1ccc2c(c1)[C@H](Cc1ccccc1)[C@H](N)CO2 (relative stereo) [Example 23, cis-Ethanesulfonic acid (3-amino-4-benzyl-chroman-6-ylmethyl)-amide]
≥ 7.00 | CCS(=O)(=O)NCc1ccc2c(c1)[C@@H](Cc1ccccc1)[C@H](N)CO2 (relative stereo) [Example 24, trans-Ethanesulfonic acid (3-amino-4-benzyl-chroman-6-ylmethyl)-amide]
≥ 6.00 | CN[C@@H]1COc2ccc(CNS(=O)(=O)C3CCC3)cc2[C@H]1Cc1ccccc1 (relative stereo) [Example 26, trans-Cyclobutanesulfonic acid (4-benzyl-3-methylamino-chroman-6-ylmethyl)-amide]
≥ 8.00 | CCS(=O)(=O)NCc1cc2c(cc1F)OC[C@@H](NC)[C@H]2Cc1ccccc1 (relative stereo) [Example 27, cis-Ethanesulfonic acid (-4-benzyl-7-fluoro-3-methylamino-chroman-6-ylmethyl)-amide]
≥ 7.00 | CCS(=O)(=O)NCCOc1cc2c(cc1F)OC[C@@H](NC)[C@H]2Cc1ccccc1 (relative stereo) [Example 29, cis-Ethanesulfonic acid [2-(-4-benzyl-7-fluoro-3-methylamino-chroman-6-yloxy)-ethyl]-amide]
≥ 6.00 | CCS(=O)(=O)NCCOc1cc2c(cc1F)OC[C@@H](NC)[C@@H]2Cc1ccccc1 (relative stereo) [Example 30, trans-Ethanesulfonic acid [2-(-4-benzyl-7-fluoro-3-methylamino-chroman-6-yloxy)-ethyl]-amide]
≥ 7.00 | CN[C@@H]1COc2cc(F)c(CNS(=O)(=O)c3cn(C)cn3)cc2[C@@H]1Cc1ccccc1 (relative stereo) [Example 31, cis-1-Methyl-1H-imidazole-4-sulfonic acid (-4-benzyl-7-fluoro-3-methylamino-chroman-6-ylmethyl)-amide]
≥ 8.00 | CCCN[C@@H]1COc2ccc(CNS(=O)(=O)c3cn(C)cn3)cc2[C@@H]1Cc1ccccc1 (relative stereo) [Example 35, cis-N-((-4-benzyl-3-(propylamino)chroman-6-yl)methyl)-1-methyl-1H-imidazole-4-sulfonamide 2,2,2-trifluoroacetate]
≥ 7.00 | Cn1cnc(S(=O)(=O)NCc2ccc3c(c2)[C@H](Cc2ccccc2)[C@H](NCC(C)(C)C)CO3)c1 (relative stereo) [Example 36, cis-N-((-4-benzyl-3-(neopentylamino)chroman-6-yl)methyl)-1-methyl-1H-imidazole-4-sulfonamide 2,2,2-trifluoroacetate]
≥ 8.00 | CC(C)CCN[C@@H]1COc2ccc(CNS(=O)(=O)c3cn(C)cn3)cc2[C@@H]1Cc1ccccc1 (relative stereo) [Example 39, cis-N-((-4-benzyl-3-(isopentylamino)chroman-6-yl)methyl)-1-methyl-1H-imidazole-4-sulfonamide 2,2,2-trifluoroacetate]
≥ 7.00 | Cn1cnc(S(=O)(=O)NCc2ccc3c(c2)[C@H](Cc2ccccc2)[C@H](NCC2CCCC2)CO3)c1 (relative stereo) [Example 40, cis-N-((-4-benzyl-3-((cyclopentylmethyl)amino)chroman-6-yl)methyl)-1-methyl-1H-imidazole-4-sulfonamide 2,2,2-trifluoroacetate]
≥ 8.00 | Cn1cnc(S(=O)(=O)NCc2ccc3c(c2)[C@H](Cc2ccccc2)[C@H](N2CCCC2)CO3)c1 (relative stereo) [Example 62, cis-1-Methyl-1H-imidazole-4-sulfonic acid (-4-benzyl-3-pyrrolidin-1-yl-chroman-6-ylmethyl)-amide]
≥ 7.00 | CCS(=O)(=O)NCc1ccc2c(c1)[C@H](Cc1ccccc1)[C@H](N1CCCC1)CO2 (relative stereo) [Example 63, cis-Ethanesulfonic acid (-4-benzyl-3-pyrrolidin-1-yl-chroman-6-ylmethyl)-amide]
≥ 6.00 | CS(=O)(=O)NCc1ccc2c(c1)[C@H](Cc1ccccc1)[C@H](N1CCCC1)CO2 (relative stereo) [Example 64, cis-N-(-4-Benzyl-3-pyrrolidin-1-yl-chroman-6-ylmethyl)-methanesulfonamide]
≥ 8.00 | Cn1cc(S(=O)(=O)NCc2ccc3c(c2)[C@H](Cc2ccccc2)[C@H](N2CCCC2)CO3)cn1 (relative stereo) [Example 66, cis-1-Methyl-1H-pyrazole-4-sulfonic acid (-4-benzyl-3-pyrrolidin-1-yl-chroman-6-ylmethyl)-amide]
